What was measured:
[1] = Inhibition of soybean lipoxygenase; design: species or system Glycine max
[2] = target: T1, Prostaglandin G/H synthase 1 (Ovis aries, UniProt P05979); experiment: Inhibition of ovine COX-1
T1 sequence (P05979 whole entry): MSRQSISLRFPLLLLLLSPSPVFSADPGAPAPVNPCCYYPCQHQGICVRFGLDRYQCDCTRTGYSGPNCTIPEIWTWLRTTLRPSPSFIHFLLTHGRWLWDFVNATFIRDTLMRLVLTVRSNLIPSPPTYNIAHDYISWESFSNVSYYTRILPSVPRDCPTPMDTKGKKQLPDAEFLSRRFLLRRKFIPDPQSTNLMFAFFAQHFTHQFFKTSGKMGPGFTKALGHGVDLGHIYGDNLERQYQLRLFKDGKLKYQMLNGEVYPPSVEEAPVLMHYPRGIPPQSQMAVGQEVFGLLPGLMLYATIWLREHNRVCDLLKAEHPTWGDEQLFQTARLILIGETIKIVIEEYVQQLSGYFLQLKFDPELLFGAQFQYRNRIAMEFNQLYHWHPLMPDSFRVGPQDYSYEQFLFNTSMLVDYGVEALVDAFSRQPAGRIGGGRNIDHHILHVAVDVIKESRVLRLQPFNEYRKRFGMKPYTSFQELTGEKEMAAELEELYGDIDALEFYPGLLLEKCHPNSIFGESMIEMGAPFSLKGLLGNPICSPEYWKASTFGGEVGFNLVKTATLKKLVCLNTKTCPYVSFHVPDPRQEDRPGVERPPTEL

[3] = target: T2, Prostaglandin G/H synthase 2 (Homo sapiens, UniProt P35354); experiment: Inhibition of human COX-2
T2 sequence (P35354 whole entry): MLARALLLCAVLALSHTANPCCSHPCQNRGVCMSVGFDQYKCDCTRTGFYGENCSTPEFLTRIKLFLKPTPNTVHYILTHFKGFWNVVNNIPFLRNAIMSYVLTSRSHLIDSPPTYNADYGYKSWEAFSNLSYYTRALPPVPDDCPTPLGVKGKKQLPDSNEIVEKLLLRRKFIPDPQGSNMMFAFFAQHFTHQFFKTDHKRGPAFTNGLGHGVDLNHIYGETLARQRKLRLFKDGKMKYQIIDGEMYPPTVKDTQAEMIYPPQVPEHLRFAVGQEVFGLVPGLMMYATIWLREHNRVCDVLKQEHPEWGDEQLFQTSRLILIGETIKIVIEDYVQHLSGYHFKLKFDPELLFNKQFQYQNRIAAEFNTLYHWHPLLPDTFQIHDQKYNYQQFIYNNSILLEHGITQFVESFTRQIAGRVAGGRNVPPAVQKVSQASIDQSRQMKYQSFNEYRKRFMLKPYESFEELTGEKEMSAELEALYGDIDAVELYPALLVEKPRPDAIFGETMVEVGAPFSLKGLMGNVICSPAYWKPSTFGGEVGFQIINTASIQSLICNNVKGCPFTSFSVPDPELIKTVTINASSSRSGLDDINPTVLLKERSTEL

[4] = Selectivity ratio of IC50 for ovine COX-1 to IC50 for human COX-2
[5] = target: T3, Polyunsaturated fatty acid 5-lipoxygenase (Homo sapiens, UniProt P09917); experiment: Inhibition of 5-LOX in human PMNL cells; type: cell-based
T3 sequence (P09917 whole entry): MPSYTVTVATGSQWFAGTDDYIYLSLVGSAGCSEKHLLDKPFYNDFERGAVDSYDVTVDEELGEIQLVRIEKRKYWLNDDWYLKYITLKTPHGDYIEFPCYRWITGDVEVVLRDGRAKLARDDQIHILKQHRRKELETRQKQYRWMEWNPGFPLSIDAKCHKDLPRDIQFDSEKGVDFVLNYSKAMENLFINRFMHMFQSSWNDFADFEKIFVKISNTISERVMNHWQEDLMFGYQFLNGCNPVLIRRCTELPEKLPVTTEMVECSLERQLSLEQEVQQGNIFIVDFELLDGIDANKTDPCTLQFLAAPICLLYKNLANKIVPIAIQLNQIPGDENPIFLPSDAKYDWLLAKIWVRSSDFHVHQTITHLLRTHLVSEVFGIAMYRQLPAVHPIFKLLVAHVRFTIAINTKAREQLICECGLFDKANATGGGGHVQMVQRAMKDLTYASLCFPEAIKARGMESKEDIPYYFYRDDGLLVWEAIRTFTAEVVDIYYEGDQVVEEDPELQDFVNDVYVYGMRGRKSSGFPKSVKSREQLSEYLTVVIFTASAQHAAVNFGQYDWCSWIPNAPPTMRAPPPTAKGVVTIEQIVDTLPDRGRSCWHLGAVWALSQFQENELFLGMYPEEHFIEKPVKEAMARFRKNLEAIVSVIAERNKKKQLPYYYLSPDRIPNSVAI

[6] = target: T2, Prostaglandin G/H synthase 2; experiment: Inhibition of COX-2 (unknown origin) by Enzyme immune assay
Rattus norvegicus [7] = experiment: Anti-inflammatory activity against carrageenan-induced paw edema in Wistar albino rat assessed as inhibition of paw edema at 50 mg/kg, sc administered for 14 days relative to control; type: functional; design: scale not given: the % may be the effect or the level left; settings: time 14 day
Rattus norvegicus [8] = experiment: Anti-inflammatory activity against carrageenan-induced paw edema in Wistar albino rat assessed as inhibition of paw edema; type: functional
RAW264.7 [9] = experiment: Anti-inflammatory activity against mouse RAW264.7 cells assessed as inhibition of LPS-induced IL-6 production at 10 uM pre-incubated with LPS-stimulation for 2 hrs followed by compound addition and measured after 22 hrs by ELISA analysis relative to control; type: functional; design: scale not given: the % may be the effect or the level left; settings: time 24 hrs
RAW264.7 [10] = experiment: Anti-inflammatory activity against mouse RAW264.7 cells assessed as inhibition of LPS-induced TNF-alpha production at 10 uM pre-incubated with LPS-stimulation for 2 hrs followed by compound addition and measured after 22 hrs by ELISA analysis relative to control; type: functional; design: scale not given: the % may be the effect or the level left; settings: time 24 hrs
[11] = Inhibition of human recombinant sPLA2-V
Carbonic anhydrase 2 = Carbonic anhydrase 2 (Homo sapiens, UniProt P00918); experiment: Inhibition of recombinant human carbonic anhydrase II incubated for 30 mins by spectrophotometric analysis

## O=C1c2ccccc2C(=O)N1c1nc2cc([N+](=O)[O-])ccc2n1Cc1cccc(-c2ccccc2)c1
[1]
  IC50: 1020 nM
[2]
  IC50: 9850 nM
[3]
  IC50: 1000 nM
[4]
  Ratio IC50: 9.85
[5]
  IC50: 320 nM

## COc1ccnc(Nc2nn3c(SC)c(C#N)c(O)nc3c2C#N)c1
[6]
  IC50: 1110 nM
Rattus norvegicus [7]
  Activity: 46%
Rattus norvegicus [8]
  ED50: 35 mg/kg
RAW264.7 [9]
  Activity: 80%
RAW264.7 [10]
  Activity: 89%
[11]
  IC50: 1000 nM

## NS(=O)(=O)c1ccc(NCCC(=O)N/N=C/c2ccc(-c3ccc(Br)s3)cc2)cc1
Carbonic anhydrase 2
  IC50: 110 nM

Reference: ChEMBL document CHEMBL5543066, “Dual COX-2/15-LOX inhibitors: A new avenue in the prevention of cancer” (Eur J Med Chem, 2023)
